Measured values taken from patent US11584752B2, “Method for controlled release using mechanical force” (California Institute of Technology, priority 2020, dated 2023).
“Also recorded” adds a separate entry of the source. Each block holds one molecule with its values, some of them ahead of it.

How the values were obtained:
[1] = Decomposition of model 2-furylcarbinol derivatives in solution at room temperature, followed by NMR and photoluminescence spectroscopy
From the text: The generation of hydroxycoumarin 2 in the room temperature solution of furfuryl carbonate 1 in MeCN:MeOH (3:1) was also monitored over time using fluorescence spectroscopy (FIG. 3C).
Furthermore, FIG. 8C illustrates the kinetics of the decomposition of furfuryl carbamates comprising α-methyl, 3-phenoxy, and 5-position substituents according to many embodiments, such as exemplified by 21, and compares them to the furfuryl carbamates without the 3-phenoxy substitution, such as exemplified by furfuryl carbamate 22. More specifically, FIG. 8C provides data from experimental studies, wherein the decompositions of 21 and 22 to generate aminocoumarin 23 were monitored as a function of time using NMR and PL spectroscopy.

[2] = Thermal stability of Diels-Alder adducts in toluene-d8 (retro-Diels-Alder conversion by 1H NMR); assay type: physicochemical
From the text: For example, FIGS. 7A and 7B illustrate that addition of the 3-phenoxy group to the furan moiety leads to a pronounced increase in the thermal stability of the Diels-Alder adduct of many embodiments. Not to be bound by any theory, this effect has been observed previously for cycloadducts derived from 3-alkoxy-furans, and it has been ascribed to a reduction in the energetic penalty for loss of furan aromaticity (as explained, for example in: Boutelle, R. C.; Northrop, B. H. Substituent Effects on the Reversibility of Furan-Maleimide Cycloadditions. J. Org. Chem. 2011, 76, 7994-8002; and Foster, R. W.; et al. Irreversible endo-Selective Diels-Alder Reactions of Substituted Alkoxyfurans: A General Synthesis of endo-Cantharimides. Chemistry 2015, 21, 6107-6114, the disclosures of which are incorporated herein by reference). Accordingly, FIG. 7A illustrates that, […] after 5 h, while the same conditions lead to approximately 46% reversion of the analogous Diels-Alder adduct (±)-216 without the 3-phenoxy substituent. […] Accordingly, in many embodiments, 3-phenoxy, or any similar aryloxy substituent at 3-position of the furan moiety enhances the thermal stability of such mechanophore platforms without any detriment to their mechanochemical activity.
In comparison, as described herein, heating the Diels-Alder adduct comprising a 3-OPh substituted furan moiety at 70° C. under the same conditions results in <2% retro-Diels-Alder conversion, while for the Diels-Alder adduct comprising neither substituent the conversion ˜46% under the same heating conditions.

[3] = toluene-d8, room temperature, after 132 days

conversion ([1]; 19.6 mM in MeCN-d3:MeOH (3:1), room temperature, after 134 days, 1H NMR): approximately 40% | decomposition reactivity ([1]; 3:1 MeCN/MeOH, room temperature, same conditions as 21): completely unreactive
Structure (SMILES): Cc1cc(=O)oc2cc(NC(=O)OC(C)c3ccc(COC(=O)C(C)(C)C)o3)ccc12 (centres unmarked) [Compound 22, (5-(1-(((4-methyl-2-oxo-2H-chromen-7-yl)carbamoyl)oxy)ethyl)furan-2-yl)methyl pivalate]

half-life at 21 mM ([1]; acetonitrile-d3/methanol solution, half-life for consumption t1/2, 3:1 acetonitrile-d3/methanol, room temperature, NMR, 21 mM): 9.3 h | yield of aminocoumarin released ([1]; acetonitrile/methanol (3:1 v/v), room temperature): nearly quantitative | half-life ([1]; acetonitrile/methanol solution, half-life of consumption and aminocoumarin generation, acetonitrile/methanol (3:1 v/v), room temperature, 1H NMR and PL): ~10 h
Structure (SMILES): Cc1cc(=O)oc2cc(NC(=O)OCc3ccc(Oc4ccc(CCOC(=O)C(C)(C)Br)cc4)o3)ccc12 [Compound 35, 4-((5-((((4-methyl-2-oxo-2H-chromen-7-yl)carbamoyl)oxy)methyl)furan-2-yl)oxy)phenethyl 2-bromo-2-methylpropanoate]

stability in solvent ([1]; DCM, chloroform, and hexanes): relatively stable | half-life ([1]; acetonitrile-d3/methanol solution, reaction half-life t1/2 of decomposition, 3:1 (v/v) acetonitrile-d3/methanol, room temperature, from NMR measurements): 1.32 h | stability in solvent ([1]; acidic and protic solvents): decomposes quickly | stability in solvent ([1]; chloroform and acetonitrile): relatively stable | half-life ([1]; water/acetonitrile-d3 solution, half-life of decomposition, water/acetonitrile mixture (water 25% by volume in acetonitrile-d3), room temperature, NMR): ~0.133 h
Structure (SMILES): Cc1cc(=O)oc2cc(OC(=O)OC(C)c3ccc(COC(=O)C(C)(C)Br)o3)ccc12 (centres unmarked) [Compound 1, (5-(1-((((4-methyl-2-oxo-2H-chromen-7-yl)oxy)carbonyl)oxy)ethyl)furan-2-yl)methyl 2-bromo-2-methylpropanoate]

estimated half-lives for decomposition ([1]; room temperature): several weeks
Structure (SMILES): Cc1cc(=O)oc2cc(OC(=O)OCc3ccc(COC(=O)C(C)(C)Br)o3)ccc12 [Compound S2, (5-(((((4-methyl-2-oxo-2H-chromen-7-yl)oxy)carbonyl)oxy)methyl)furan-2-yl)methyl 2-bromo-2-methylpropanoate]

Continued, molecule first:

Structure (SMILES): CC(O)[C@@]12C=C[C@@](COC(=O)C(C)(C)Br)(O1)[C@@H]1C(=O)N(CCOC(=O)C(C)(C)Br)C(=O)[C@@H]12 (mixture of isomers) [(±)-216]
retro-Diels-Alder conversion ([2]; toluene-d8, 70° C., after 5 h): approximately 46% | retro-Diels-Alder conversion ([2]; toluene-d8, 70° C., after 21 h): nearly quantitative | thermal stability ([2]; toluene-d8, room temperature): slow, but detectable, reversion | retro-Diels-Alder conversion [2, 3]: approximately 23%

Structure (SMILES): CC(O)C12OC(COC(=O)C(C)(C)Br)(C=C1Oc1ccccc1)C1C(=O)N(CCOC(=O)C(C)(C)Br)C(=O)C12 (racemic) [(±)-29, (2-(2-((2-bromo-2-methylpropanoyl)oxy)ethyl)-7-(1-hydroxyethyl)-1,3-dioxo-6-phenoxy-1,2,3,3a,7,7a-hexahydro-4H-4,7-epoxyisoindol-4-yl)methyl 2-bromo-2-methylpropanoate]
retro-Diels-Alder conversion ([2]; toluene-d8, 70° C., after 5 h): < 2% | retro-Diels-Alder conversion ([2]; toluene-d8, 70° C., after 21 h): < 7% | thermal stability ([2]; toluene-d8, room temperature): stable indefinitely | retro-Diels-Alder conversion [2, 3]: no reaction is observed

Structure (SMILES): CC(C)(Br)C(=O)OCCc1ccc(OC23C=CC(CO)(O2)C2C(=O)N(CCOC(=O)C(C)(C)Br)C(=O)C23)cc1 (racemic) [(±)-33, 4-((2-(2-((2-bromo-2-methylpropanoyl)oxy)ethyl)-7-(hydroxymethyl)-1,3-dioxo-1,2,3,3a,7,7a-hexahydro-4H-4,7-epoxyisoindol-4-yl)oxy)phenethyl 2-bromo-2-methylpropanoate]
retro-Diels-Alder conversion ([2]; toluene-d8 (7.7 mM), room temperature, nearly two months): negligible; also recorded: no detectable products | retro-Diels-Alder conversion ([2]; toluene-d8, 70° C., after 21 h): ~35%

Structure (SMILES): Cc1cc(=O)oc2cc(NC(=O)OC(C)c3oc(COC(=O)C(C)(C)C)cc3Oc3ccccc3)ccc12 (centres unmarked) [Compound 21, (5-(1-(((4-methyl-2-oxo-2H-chromen-7-yl)carbamoyl)oxy)ethyl)-4-phenoxyfuran-2-yl)methyl pivalate]
time to full conversion to products ([1]; 3:1 MeCN/MeOH, room temperature): approximately 5 h | half-life at 19 μM ([1]; MeCN-d3/MeOH solution, half-life for decomposition t1/2, 3:1 MeCN-d3/MeOH, room temperature, NMR, first-order fit): 0.567 h
